Values quoted from earlier work as cited in US6420379B1, “Alkynyl-substituted camptothecins and process for their preparation” (Pharmacia & Upjohn S.p.A., priority 1997, dated 2002).

Assays:
human albumin = human albumin (Homo sapiens, UniProt P02768); settings: presence of biologically relevant levels of human albumin
[1] = 2 hours after drug addition to human plasma

Chain of human albumin (P02768 25-609): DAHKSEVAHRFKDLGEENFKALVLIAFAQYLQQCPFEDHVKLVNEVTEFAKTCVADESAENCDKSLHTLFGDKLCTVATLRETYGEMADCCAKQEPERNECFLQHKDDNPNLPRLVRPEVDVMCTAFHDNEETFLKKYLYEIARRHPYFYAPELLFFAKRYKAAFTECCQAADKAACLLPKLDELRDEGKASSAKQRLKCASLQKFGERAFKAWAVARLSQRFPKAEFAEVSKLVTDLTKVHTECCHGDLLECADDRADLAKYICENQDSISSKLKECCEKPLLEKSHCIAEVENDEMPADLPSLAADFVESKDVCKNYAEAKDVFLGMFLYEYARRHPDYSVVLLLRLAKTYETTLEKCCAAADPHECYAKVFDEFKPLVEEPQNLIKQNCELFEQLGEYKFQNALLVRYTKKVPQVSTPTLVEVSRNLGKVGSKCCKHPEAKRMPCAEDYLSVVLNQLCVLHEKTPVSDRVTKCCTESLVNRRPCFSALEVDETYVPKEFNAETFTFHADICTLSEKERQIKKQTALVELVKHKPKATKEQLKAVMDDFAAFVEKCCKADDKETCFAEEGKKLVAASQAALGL

Structure (SMILES): CC[C@@]1(O)C(=O)OCc2c1cc1n(c2=O)Cc2cc3ccccc3nc2-1 [camptothecin]
- half-life of the biologically active form (human albumin): about 12 min.
- percentage of the drug converted to camptothecin carboxylate [1]: greater than 99%
